Laboratory results as given in US10167262B2, “Herbicidal substituted 3-arylpyrazoles” (FMC CORPORATION, priority 2014, dated 2019).

How the values were obtained:
Assay type in all cases: in vivo
[1] = tested on: winter wheat (Triticum aestivum); experiment: Test D postemergence controlled growth environment test, plant response rating 0-100
Source text: (§1) Seeds of plant species selected from bluegrass (annual bluegrass, Poa annua), blackgrass (Alopecurus myosuroides), canarygrass (Phalaris minor), chickweed (common chickweed, Stellaria media), galium (catchweed bedstraw, Galium aparine), downy bromegrass (Bromus tectorum), field violet (Viola arvensis), green foxtail (Setaria viridis), deadnettle (henbit deadnettle, Lamium amplexicaule), Italian ryegrass (Lolium multiflorum), kochia (Kochia scoparia), lambsquarters (Chenopodium album), oilseed rape (Brassica napus), pigweed (Amaranthus retroflexus), Russian thistle (Salsola kali), spring barley (Hordeum vulgare), spring wheat (Triticum aestivum), wild buckwheat (Polygonum convolvulus), wild mustard (Sinapis arvensis), wild oat (Avena fatua), windgrass (Apera spica-venti), winter barley (Hordeum vulgare), and winter wheat (Triticum aestivum) were planted in pots containing Redi-Earth® planting medium (Scotts Company, 14111 Scottslawn Road, Marysville, Ohio 43041) comprising spaghnum peat moss, vermiculite, wetting agent and starter nutrients and treated with postemergence applications of test chemicals formulated in a non-phytotoxic solvent mixture which included a surfactant. Plants ranged in height from 2 to 18 cm (1- to 4-leaf stage). Treated plants and controls were maintained in a controlled growth environment for 14 days after which time all species were compared to controls and visually evaluated. Plant response ratings, summarized in Table D, are based on a scale of 0 to 100 where 0 is no effect and 100 is complete control. A dash (-) response means no test result.

[2] = tested on: wild buckwheat (Polygonum convolvulus); experiment: as above
Source text: as §1

[3] = tested on: lambsquarters (Chenopodium album); experiment: as above
Source text: as §1

[4] = tested on: giant foxtail (Setaria faberii); experiment: Test E pre-/postemergence greenhouse test, plant response rating 0-100; conditions: Preemergence, scale 0 to 100
[5] = tested on: velvetleaf (Abutilon theophrasti); experiment: as above; conditions: Preemergence, scale 0 to 100
In short: (§2)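 Seeds sown in silt loam soil received preemergence treatment with compound in a non-phytotoxic solvent mixture containing surfactant. Postemergence, plants at 2–18 cm (1- to 4-leaf stage) in peat/vermiculite medium were sprayed with the same formulation. Visual injury versus untreated controls was rated 0–100 after 14 to 21 days in the greenhouse.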

[6] = tested on: surinam grass (Brachiaria decumbens); experiment: as above; conditions: Preemergence, scale 0 to 100
In short: as §2

[7] = tested on: ragweed (common ragweed, Ambrosia elatior); experiment: as above; conditions: Preemergence, scale 0 to 100
In short: as §2

[8] = tested on: lambsquarters (Chenopodium album); experiment: as above; conditions: Preemergence, scale 0 to 100
In short: as §2

[9] = tested on: nightshade (eastern black nightshade, Solanum ptycanthum); experiment: as above; conditions: Preemergence, scale 0 to 100
In short: as §2

[10] = tested on: goosegrass (Eleusine indica); experiment: as above; conditions: Preemergence, scale 0 to 100
[11] = tested on: morningglory (Ipomoea coccinea); experiment: as above; conditions: Preemergence, scale 0 to 100
[12] = tested on: green foxtail (Setaria viridis); experiment: as above; conditions: Preemergence, scale 0 to 100
[13] = tested on: cocklebur (common cocklebur, Xanthium strumarium); experiment: as above; conditions: Preemergence, scale 0 to 100
In short: as §2

[14] = tested on: smartweed (ladysthumb smartweed, Polygonum persicaria); experiment: as above; conditions: Preemergence, scale 0 to 100

SMILES: Clc1cc(Cl)cc(-c2n[nH]cc2C(=NN2CCCC2)c2ccccc2)c1 [Compound 30, N-[[3-(3,5-dichlorophenyl)-1H-pyrazol-4-yl]phenylmethylene]-1-pyrrolidinamine]
- Plant response rating, Wheat, Winter ([1]; 16 g ai/ha): 0
- Plant response rating, Wheat, Winter ([1]; 31 g ai/ha): 0
- Plant response rating, Wheat, Winter ([1]; 62 g ai/ha): 0
- Plant response rating, Wheat, Winter ([1]; 125 g ai/ha): 0
- Plant response rating, Wheat, Winter ([1]; 250 g ai/ha): 90
- Plant response rating, Buckwheat, Wild ([2]; 16 g ai/ha): 0
- Plant response rating, Buckwheat, Wild ([2]; 31 g ai/ha): 0
- Plant response rating, Buckwheat, Wild ([2]; 62 g ai/ha): 5
- Plant response rating, Buckwheat, Wild ([2]; 125 g ai/ha): 15
- Plant response rating, Buckwheat, Wild ([2]; 250 g ai/ha): 35
- Plant response rating, Lambsquarters ([3]; 16 g ai/ha): 0
- Plant response rating, Lambsquarters ([3]; 31 g ai/ha): 0
- Plant response rating, Lambsquarters ([3]; 62 g ai/ha): 30
- Plant response rating, Lambsquarters ([3]; 125 g ai/ha): 40
- Plant response rating, Lambsquarters ([3]; 250 g ai/ha): 50

SMILES: C#CCn1cc(C(=O)c2ccccc2)c(-c2cc(Cl)cc(Cl)c2)n1 [Compound 39, [3-(3,5-dichlorophenyl)-1-(2-propyn-1-yl)-1H-pyrazol-4-yl]phenylmethanone]
- Foxtail, Giant plant response rating ([4]; 62 g ai/ha): 0
- Foxtail, Giant plant response rating ([4]; 125 g ai/ha): 0
- Foxtail, Giant plant response rating ([4]; 250 g ai/ha): 0
- Foxtail, Giant plant response rating ([4]; 500 g ai/ha): 0
- Plant response rating, Wheat, Winter ([1]; 16 g ai/ha): 0
- Plant response rating, Wheat, Winter ([1]; 31 g ai/ha): 0
- Plant response rating, Wheat, Winter ([1]; 62 g ai/ha): 0
- Plant response rating, Wheat, Winter ([1]; 125 g ai/ha): 0
- Plant response rating, Wheat, Winter ([1]; 250 g ai/ha): 0
- Plant response rating, Buckwheat, Wild ([2]; 16 g ai/ha): 0
- Plant response rating, Buckwheat, Wild ([2]; 31 g ai/ha): 0
- Plant response rating, Buckwheat, Wild ([2]; 62 g ai/ha): 0
- Plant response rating, Buckwheat, Wild ([2]; 125 g ai/ha): 10
- Plant response rating, Buckwheat, Wild ([2]; 250 g ai/ha): 20
- Plant response rating, Lambsquarters ([3]; 16 g ai/ha): 0
- Plant response rating, Lambsquarters ([3]; 31 g ai/ha): 0
- Plant response rating, Lambsquarters ([3]; 62 g ai/ha): 10
- Plant response rating, Lambsquarters ([3]; 125 g ai/ha): 20
- Plant response rating, Lambsquarters ([3]; 250 g ai/ha): 25
- Velvetleaf plant response rating ([5]; 62 g ai/ha): 15
- Velvetleaf plant response rating ([5]; 125 g ai/ha): 75
- Velvetleaf plant response rating ([5]; 250 g ai/ha): 90
- Velvetleaf plant response rating ([5]; 500 g ai/ha): 100
- Surinam Grass plant response rating ([6]; 62 g ai/ha): 0
- Surinam Grass plant response rating ([6]; 125 g ai/ha): 0
- Surinam Grass plant response rating ([6]; 250 g ai/ha): 0
- Surinam Grass plant response rating ([6]; 500 g ai/ha): 0
- Ragweed plant response rating ([7]; 62 g ai/ha): 60
- Ragweed plant response rating ([7]; 125 g ai/ha): 0
- Ragweed plant response rating ([7]; 250 g ai/ha): 65
- Ragweed plant response rating ([7]; 500 g ai/ha): 30
- Lambsquarters plant response rating ([8]; 62 g ai/ha): 90
- Lambsquarters plant response rating ([8]; 125 g ai/ha): 95
- Lambsquarters plant response rating ([8]; 250 g ai/ha): 90
- Lambsquarters plant response rating ([8]; 500 g ai/ha): 100
- Nightshade plant response rating ([9]; 62 g ai/ha): 0
- Nightshade plant response rating ([9]; 125 g ai/ha): 0
- Nightshade plant response rating ([9]; 250 g ai/ha): 100
- Nightshade plant response rating ([9]; 500 g ai/ha): 95
- Goosegrass plant response rating ([10]; 62 g ai/ha): 0
- Goosegrass plant response rating ([10]; 125 g ai/ha): 0
- Goosegrass plant response rating ([10]; 250 g ai/ha): 0
- Goosegrass plant response rating ([10]; 500 g ai/ha): 0
- Morningglory plant response rating ([11]; 62 g ai/ha): 0
- Morningglory plant response rating ([11]; 125 g ai/ha): 0
- Morningglory plant response rating ([11]; 250 g ai/ha): 0
- Morningglory plant response rating ([11]; 500 g ai/ha): 0
- Foxtail, Green plant response rating ([12]; 62 g ai/ha): 0
- Foxtail, Green plant response rating ([12]; 125 g ai/ha): 0
- Foxtail, Green plant response rating ([12]; 250 g ai/ha): 0
- Foxtail, Green plant response rating ([12]; 500 g ai/ha): 0

SMILES: Cn1cc(C(=O)c2ccccc2)c(-c2cc(Cl)cc(Cl)c2)n1 [Compound 54, [3-(3,5-dichlorophenyl)-1-methyl-1H-pyrazol-4-yl]phenylmethanone]
- Velvetleaf plant response rating ([5]; 125 g ai/ha): 87
- Velvetleaf plant response rating ([5]; 250 g ai/ha): 78
- Ragweed plant response rating ([7]; 125 g ai/ha): 35
- Ragweed plant response rating ([7]; 250 g ai/ha): 62
- Lambsquarters plant response rating ([8]; 125 g ai/ha): 68
- Lambsquarters plant response rating ([8]; 250 g ai/ha): 86
- Plant response rating, Lambsquarters ([8]; 1000 g ai/ha): 99
- Nightshade plant response rating ([9]; 125 g ai/ha): 0
- Nightshade plant response rating ([9]; 250 g ai/ha): 0
- Cocklebur plant response rating ([13]; 125 g ai/ha): 0
- Cocklebur plant response rating ([13]; 250 g ai/ha): 0
- Morningglory plant response rating ([11]; 125 g ai/ha): 7
- Morningglory plant response rating ([11]; 250 g ai/ha): 12
- Smartweed plant response rating ([14]; 125 g ai/ha): 0
- Smartweed plant response rating ([14]; 250 g ai/ha): 0
